Molecular target: T1, human TRPM8 (UniProt Q8R4D5)
T1 construct: Receptor Activity TRPM8; Receptor Activity TRPM8; other: test compound at 0.001%; relative to WS5 control (30 microMolar); HEK 293 cells; other: test compound at 0.004%; other: test compound at 5.2E−5%; relative to WS5 control
Test: TRPM8 Protocol-FLIPR Assay (intracellular Ca2+)
Format: cell-based
Settings: for TRPM8 Time Course Activity 50 sec: fluorescence at 50 sec; for TRPM8 Time Course Activity 50 sec % of WS5: vs 30 uM WS-5

- TRPM8 Time Course Activity 50 sec (dose 6.1 nM): 884.0
- TRPM8 Time Course Activity 50 sec (dose 12.2 nM): 3018.0
- TRPM8 Time Course Activity 50 sec (dose 24.4 nM): 1936.0
- TRPM8 Time Course Activity 50 sec (dose 48.8 nM): 2916.0
- TRPM8 Time Course Activity 50 sec (dose 97.6 nM): 3963.0
- TRPM8 Time Course Activity 50 sec (dose 195 nM): 5418.0
- TRPM8 Time Course Activity 50 sec % of WS5 (dose 390 nM): 75.5%
- TRPM8 Time Course Activity 50 sec (dose 390 nM): 7592.0
- TRPM8 Time Course Activity 50 sec % of WS5 (dose 781 nM): 97.3%
- TRPM8 Time Course Activity 50 sec (dose 781 nM): 9786.0
- TRPM8 Time Course Activity 50 sec % of WS5 (dose 1.563 uM): 110.5%
- TRPM8 Time Course Activity 50 sec (dose 1.563 uM): 11114.0
- TRPM8 Time Course Activity 50 sec % of WS5 (dose 3.125 uM): 115.7%
- TRPM8 Time Course Activity 50 sec (dose 3.125 uM): 11637.0
- TRPM8 Time Course Activity 50 sec % of WS5 (dose 6.25 uM): 121.6%
- TRPM8 Time Course Activity 50 sec (dose 6.25 uM): 12229.0
- TRPM8 Time Course Activity 50 sec % of WS5 (dose 12.5 uM): 123.6%
- TRPM8 Time Course Activity 50 sec (dose 12.5 uM): 12430.0
- TRPM8 Time Course Activity 50 sec % of WS5 (dose 25 uM): 129.7%
- TRPM8 Time Course Activity 50 sec (dose 25 uM): 13046.0
- TRPM8 Time Course Activity 50 sec % of WS5 (dose 50 uM): 123.5%
- TRPM8 Time Course Activity 50 sec (dose 50 uM): 12419.0
- TRPM8 Time Course Activity 50 sec % of WS5 (dose 100 uM): 125.7%
- TRPM8 Time Course Activity 50 sec (dose 100 uM): 12646.0
SMILES: CC(C)[C@@H]1CC[C@@H](C)C[C@H]1C(=O)NCC(NC(=O)[C@@H](C)N)c1ccccc1 (single isomer, unassigned) [Compound 28 fraction 1]

From patent US9974761B2, “Medications for deposition on biological surfaces” (The Procter & Gamble Company, priority 2014, dated 2018)
